Where two headings read alike, the source gives them in different places. Positions of bridges follow the written chain, without caps; N, C: chain ends. Residues, ends and D or L forms follow the SMILES beside them.
How the values were obtained:
[1] = system: formalin pain model in male CD-1 mice; details: in vivo
hNav1.3 = hNav1.3 (Homo sapiens, UniProt Q9NY46); assay: cell-based; details: IonWorks Quattro, read-out: IWQ Use Nav1.3
[2] = system: locomotor activity in male CD-1 mice; details: 5 mg/kg s.c.
hNav1.7 = hNav1.7 (Homo sapiens, UniProt Q15858); assay: cell-based; assay type: cell-based; details: IonWorks Quattro, Use; read-out: IWQ Use Nav1.7
hNav1.5 = hNav1.5 (Homo sapiens, UniProt Q14524); assay: cell-based; details: IWQ Use Nav1.5 (μM)
hNav1.5, sequence (Q14524 whole entry, looked up): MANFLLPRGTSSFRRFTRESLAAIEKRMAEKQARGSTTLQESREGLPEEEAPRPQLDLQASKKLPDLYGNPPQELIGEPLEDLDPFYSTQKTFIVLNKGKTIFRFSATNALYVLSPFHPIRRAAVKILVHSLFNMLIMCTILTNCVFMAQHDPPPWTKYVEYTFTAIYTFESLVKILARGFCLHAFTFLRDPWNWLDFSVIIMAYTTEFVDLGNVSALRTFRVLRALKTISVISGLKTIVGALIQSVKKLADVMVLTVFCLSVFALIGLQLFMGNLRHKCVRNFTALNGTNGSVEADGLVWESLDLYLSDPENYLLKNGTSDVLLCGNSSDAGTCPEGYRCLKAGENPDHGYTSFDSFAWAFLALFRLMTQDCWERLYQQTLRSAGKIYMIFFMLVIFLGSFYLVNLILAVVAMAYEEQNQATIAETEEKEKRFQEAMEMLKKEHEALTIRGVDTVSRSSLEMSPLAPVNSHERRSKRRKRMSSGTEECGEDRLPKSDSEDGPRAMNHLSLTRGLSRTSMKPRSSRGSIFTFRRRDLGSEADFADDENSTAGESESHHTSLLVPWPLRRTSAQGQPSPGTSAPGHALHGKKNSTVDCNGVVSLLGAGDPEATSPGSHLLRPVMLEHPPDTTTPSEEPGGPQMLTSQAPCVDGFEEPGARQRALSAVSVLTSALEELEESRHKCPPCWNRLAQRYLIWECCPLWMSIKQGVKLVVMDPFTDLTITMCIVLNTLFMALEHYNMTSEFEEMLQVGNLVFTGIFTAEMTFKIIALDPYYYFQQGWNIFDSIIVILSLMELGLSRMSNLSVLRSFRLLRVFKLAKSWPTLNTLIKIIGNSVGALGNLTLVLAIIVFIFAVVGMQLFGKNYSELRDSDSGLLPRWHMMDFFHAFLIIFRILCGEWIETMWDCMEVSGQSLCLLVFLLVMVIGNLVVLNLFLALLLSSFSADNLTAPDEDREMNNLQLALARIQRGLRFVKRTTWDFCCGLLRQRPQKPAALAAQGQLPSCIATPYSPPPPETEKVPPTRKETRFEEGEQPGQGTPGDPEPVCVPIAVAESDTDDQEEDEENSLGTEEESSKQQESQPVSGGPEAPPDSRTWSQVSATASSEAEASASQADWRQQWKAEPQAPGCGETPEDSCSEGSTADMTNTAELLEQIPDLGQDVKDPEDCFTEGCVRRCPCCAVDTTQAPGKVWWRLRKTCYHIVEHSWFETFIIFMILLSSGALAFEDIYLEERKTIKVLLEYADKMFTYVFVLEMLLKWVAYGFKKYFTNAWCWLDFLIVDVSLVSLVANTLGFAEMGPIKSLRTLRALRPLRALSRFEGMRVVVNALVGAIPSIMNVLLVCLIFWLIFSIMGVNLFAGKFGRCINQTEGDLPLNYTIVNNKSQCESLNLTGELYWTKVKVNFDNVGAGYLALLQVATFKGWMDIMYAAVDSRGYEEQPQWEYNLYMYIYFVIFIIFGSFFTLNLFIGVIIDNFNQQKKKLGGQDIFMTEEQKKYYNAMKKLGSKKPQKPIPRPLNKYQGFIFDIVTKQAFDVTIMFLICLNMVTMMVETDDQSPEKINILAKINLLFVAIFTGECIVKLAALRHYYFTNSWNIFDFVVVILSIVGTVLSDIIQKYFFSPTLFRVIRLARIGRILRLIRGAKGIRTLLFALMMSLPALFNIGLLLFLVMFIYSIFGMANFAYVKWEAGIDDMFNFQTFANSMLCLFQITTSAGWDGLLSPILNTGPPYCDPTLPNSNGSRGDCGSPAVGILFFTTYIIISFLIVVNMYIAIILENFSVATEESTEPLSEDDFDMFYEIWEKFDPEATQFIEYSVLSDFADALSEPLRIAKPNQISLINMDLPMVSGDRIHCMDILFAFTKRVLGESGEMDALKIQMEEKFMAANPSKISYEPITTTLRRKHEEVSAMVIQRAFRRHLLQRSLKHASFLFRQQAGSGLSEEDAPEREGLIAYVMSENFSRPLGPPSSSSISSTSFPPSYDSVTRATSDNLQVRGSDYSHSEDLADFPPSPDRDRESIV

[3] = human plasma, 37° C.
[4] = mouse plasma, 37° C.
[5] = incubation time 0 hr (normalisation point)

hNav1.3, sequence (Q9NY46 whole entry, looked up): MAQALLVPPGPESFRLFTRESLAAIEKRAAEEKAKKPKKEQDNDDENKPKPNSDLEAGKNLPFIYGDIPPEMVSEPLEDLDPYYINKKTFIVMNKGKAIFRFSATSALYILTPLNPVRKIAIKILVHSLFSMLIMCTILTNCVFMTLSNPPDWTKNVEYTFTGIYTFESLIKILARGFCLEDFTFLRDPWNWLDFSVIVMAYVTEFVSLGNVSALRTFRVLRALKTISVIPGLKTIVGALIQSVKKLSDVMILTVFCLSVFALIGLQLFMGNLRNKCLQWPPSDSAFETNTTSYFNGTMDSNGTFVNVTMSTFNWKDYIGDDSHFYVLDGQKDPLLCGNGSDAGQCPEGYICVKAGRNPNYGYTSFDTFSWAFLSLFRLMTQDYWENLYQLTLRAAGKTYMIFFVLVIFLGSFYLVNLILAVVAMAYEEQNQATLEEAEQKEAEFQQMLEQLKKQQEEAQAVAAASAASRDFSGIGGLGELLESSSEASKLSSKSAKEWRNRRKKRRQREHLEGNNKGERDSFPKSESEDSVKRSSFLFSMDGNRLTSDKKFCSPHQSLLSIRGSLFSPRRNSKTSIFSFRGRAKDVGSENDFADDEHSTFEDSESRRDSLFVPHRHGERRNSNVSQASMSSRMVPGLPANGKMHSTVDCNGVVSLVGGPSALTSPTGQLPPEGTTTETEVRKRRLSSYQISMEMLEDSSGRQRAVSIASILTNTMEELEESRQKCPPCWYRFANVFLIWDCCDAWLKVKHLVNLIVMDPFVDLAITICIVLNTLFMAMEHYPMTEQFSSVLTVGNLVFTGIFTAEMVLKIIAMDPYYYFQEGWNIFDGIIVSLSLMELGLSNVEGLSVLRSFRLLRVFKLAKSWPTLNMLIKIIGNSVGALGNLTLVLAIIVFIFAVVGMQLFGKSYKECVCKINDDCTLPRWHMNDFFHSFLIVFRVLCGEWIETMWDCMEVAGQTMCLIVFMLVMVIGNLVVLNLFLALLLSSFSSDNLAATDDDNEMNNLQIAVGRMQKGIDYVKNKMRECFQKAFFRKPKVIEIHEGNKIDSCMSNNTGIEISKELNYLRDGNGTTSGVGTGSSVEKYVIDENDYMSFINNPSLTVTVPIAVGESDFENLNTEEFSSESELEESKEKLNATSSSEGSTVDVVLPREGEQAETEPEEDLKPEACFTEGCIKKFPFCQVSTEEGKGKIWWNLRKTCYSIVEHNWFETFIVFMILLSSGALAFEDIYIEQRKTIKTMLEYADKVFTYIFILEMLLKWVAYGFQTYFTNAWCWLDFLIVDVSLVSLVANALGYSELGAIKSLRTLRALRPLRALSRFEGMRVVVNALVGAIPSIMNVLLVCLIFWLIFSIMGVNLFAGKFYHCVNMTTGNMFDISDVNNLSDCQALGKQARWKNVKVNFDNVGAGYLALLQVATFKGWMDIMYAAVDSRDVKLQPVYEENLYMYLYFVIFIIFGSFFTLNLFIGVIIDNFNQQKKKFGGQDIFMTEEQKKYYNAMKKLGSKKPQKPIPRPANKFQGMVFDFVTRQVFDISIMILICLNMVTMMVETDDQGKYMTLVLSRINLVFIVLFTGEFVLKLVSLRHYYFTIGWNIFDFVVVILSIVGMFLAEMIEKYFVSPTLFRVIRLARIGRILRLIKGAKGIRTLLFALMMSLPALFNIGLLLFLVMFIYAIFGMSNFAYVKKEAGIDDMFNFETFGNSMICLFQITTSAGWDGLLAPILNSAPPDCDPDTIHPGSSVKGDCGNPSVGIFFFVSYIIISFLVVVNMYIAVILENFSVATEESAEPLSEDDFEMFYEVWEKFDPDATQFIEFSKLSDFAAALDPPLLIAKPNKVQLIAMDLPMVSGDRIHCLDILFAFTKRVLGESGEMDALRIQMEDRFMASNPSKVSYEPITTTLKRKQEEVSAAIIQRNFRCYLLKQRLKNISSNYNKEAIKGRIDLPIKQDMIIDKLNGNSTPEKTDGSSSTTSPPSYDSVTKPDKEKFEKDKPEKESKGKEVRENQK

CC[C@H](C)[C@@H]1NC(=O)[C@@H]2CSSC[C@@H]3NC(=O)[C@H](C(C)C)NC(=O)[C@H](CC(C)C)NC(=O)[C@H](CC(N)=O)NC(=O)[C@@H]4CCCN4C(=O)[C@H](CCCNC(=N)N)NC(=O)[C@H](CSSC[C@H](NC(=O)[C@@H](N)CC(=O)O)C(=O)N[C@@H](CC(C)C)C(=O)NCC(=O)N[C@@H](Cc4ccccc4)C(=O)N[C@@H](CCSC)C(=O)N[C@@H](CCCNC(=N)N)C(=O)N[C@@H](CCCCN)C(=O)N2)NC(=O)[C@H](CSSC[C@@H](C(=O)N[C@@H](CCCCN)C(=O)N[C@@H](Cc2ccc(O)cc2)C(=O)N[C@H](C(=O)N[C@@H](Cc2ccccc2)C(N)=O)C(C)C)NC(=O)[C@H](CCC(=O)O)NC(=O)[C@H](CCCCN)NC(=O)[C@H](Cc2c[nH]cn2)NC(=O)[C@H]([C@@H](C)O)NC(=O)[C@H](CCCNC(=N)N)NC(=O)[C@H](CO)NC3=O)NC(=O)[C@H](CCCCN)NC(=O)[C@H](CC(=O)O)NC(=O)[C@H](CC(N)=O)NC(=O)[C@H](CC(=O)O)NC(=O)[C@@H]2CCCN2C1=O [SEQ ID NO: 30, [Glu29]GpTx-1(1-34)] (H-DCLGFMRKCIPDNDKCCRPNLVCSRTHKECKYVF-NH2; disulfide 2-17, 9-23, 16-30)
time spent lifting/licking, second phase ([1]; mouse): no significant effect

CC[C@H](C)[C@@H]1NC(=O)[C@@H]2CSSC[C@@H]3NC(=O)[C@H](C(C)C)NC(=O)[C@H](CC(C)C)NC(=O)[C@H](CC(N)=O)NC(=O)[C@@H]4CCCN4C(=O)[C@H](CCCNC(=N)N)NC(=O)[C@H](CSSC[C@H](NC(=O)[C@@H](N)CC(=O)O)C(=O)N[C@@H](CC(C)C)C(=O)NCC(=O)N[C@@H](Cc4ccccc4)C(=O)N[C@@H](CCSC)C(=O)N[C@@H](CCCNC(=N)N)C(=O)N[C@@H](CCCCN)C(=O)N2)NC(=O)[C@H](CSSC[C@@H](C(=O)N[C@@H](CCCCN)C(=O)N[C@@H](Cc2ccc(O)cc2)C(=O)N[C@H](C(=O)N[C@@H](Cc2ccccc2)C(N)=O)C(C)C)NC(=O)[C@H](CCC(=O)O)NC(=O)[C@H](CCCCN)NC(=O)[C@H](Cc2cnc[nH]2)NC(=O)[C@H]([C@@H](C)O)NC(=O)[C@H](CCCNC(=N)N)NC(=O)[C@H](CO)NC3=O)NC(=O)[C@H](CCCCN)NC(=O)[C@H](CC(=O)O)NC(=O)[C@H](CC(N)=O)NC(=O)[C@H](CC(=O)O)NC(=O)[C@@H]2CCCN2C1=O [SEQ ID NO: 30, [Glu29]GpTx-1(1-34)] (H-DCLGFMRKCIPDNDKCCRPNLVCSRTHKECKYVF-NH2; disulfide 2-17, 9-23, 16-30)
IC50 (hNav1.3; Table 24, use, […]): 16.1 µM | terminal exposure (peptide plasma concentration at 45 min post formalin injection) ([1]; male, CD-1, mouse, sc, 5 mg/kg, […]): 0.502 ± 0.271 µM | locomotor activity in the open field analysis [2]: no significant effect | terminal exposure (peptide plasma concentration at 2 h post peptide injection) ([2]; later studies): 0.771 ± 0.272 µM

CSCC[C@@H]1NC(=O)[C@H](Cc2ccccc2)NC(=O)CNC(=O)[C@H](CC(C)C)NC(=O)[C@@H](NC(=O)[C@@H](N)CC(=O)O)CSSC[C@@H]2NC(=O)[C@@H]3CSSC[C@@H](C(=O)N[C@@H](CCCCN)C(=O)N[C@@H](Cc4ccc(O)cc4)C(=O)N[C@H](C(=O)N[C@@H](Cc4ccccc4)C(N)=O)C(C)C)NC(=O)[C@H](Cc4c[nH]c5ccccc45)NC(=O)[C@H](CCCCN)NC(=O)[C@H](Cc4c[nH]cn4)NC(=O)[C@H]([C@@H](C)O)NC(=O)[C@H](CCCNC(=N)N)NC(=O)[C@H](CO)NC(=O)[C@H](CSSC[C@H](NC(=O)[C@H](CCCCN)NC(=O)[C@H](CCCNC(=N)N)NC1=O)C(=O)N[C@@H](Cc1cccc4ccccc14)C(=O)N1CCC[C@H]1C(=O)N[C@@H](CC(=O)O)C(=O)N[C@@H](CC(N)=O)C(=O)N[C@@H](CC(=O)O)C(=O)N[C@@H](CCCCN)C(=O)N3)NC(=O)[C@H](C(C)C)NC(=O)[C@H](CC(C)C)NC(=O)[C@H](CC(N)=O)NC(=O)[C@@H]1CCCN1C(=O)[C@H](CCCNC(=N)N)NC2=O [SEQ ID NO: 78, [1-Nal10]GpTx-1(1-34)]
IC50 (hNav1.7): 0.15 µM | IC50 (hNav1.5): 10 µM | IC50 (hNav1.3; Use): 0.21 µM | % peptide remaining [3, 5]: 100% | % peptide remaining ([3]; incubation time 2 hr): 99% | % peptide remaining ([3]; incubation time 4 hr): 93% | % peptide remaining ([3]; incubation time 8 hr): 97% | % peptide remaining ([3]; incubation time 24 hr): 82% | % peptide remaining [4, 5]: 100% | % peptide remaining ([4]; incubation time 2 hr): 98% | % peptide remaining ([4]; incubation time 4 hr): 92% | % peptide remaining ([4]; incubation time 8 hr): 92% | % peptide remaining ([4]; incubation time 24 hr): 88%

CC[C@H](C)[C@@H]1NC(=O)[C@@H]2CSSC[C@@H]3NC(=O)[C@H](C(C)C)NC(=O)[C@H](CC(C)C)NC(=O)[C@H](CC(N)=O)NC(=O)[C@@H]4CCCN4C(=O)[C@H](CCCNC(=N)N)NC(=O)[C@H](CSSC[C@H](NC(=O)[C@@H](N)CC(=O)O)C(=O)N[C@@H](CC(C)C)C(=O)NCC(=O)N[C@@H](Cc4ccccc4)C(=O)N[C@@H](CCSC)C(=O)N[C@@H](CCCNC(=N)N)C(=O)N[C@@H](CCCCN)C(=O)N2)NC(=O)[C@H](CSSC[C@@H](C(=O)N[C@@H](CCCCN)C(=O)N[C@@H](Cc2ccc(O)cc2)C(=O)N[C@H](C(=O)N[C@@H](Cc2ccccc2)C(N)=O)C(C)C)NC(=O)[C@H](CCC(=O)O)NC(=O)[C@H](CCCCN)NC(=O)[C@H](Cc2c[nH]cn2)NC(=O)[C@H]([C@@H](C)O)NC(=O)[C@H](CCCNC(=N)N)NC(=O)[C@H](CO)NC3=O)NC(=O)[C@H](CCCCN)NC(=O)[C@H](CC(=O)O)NC(=O)[C@H](CC(N)=O)NC(=O)[C@H](CC(=O)O)NC(=O)[C@@H]2CCCN2C1=O [[Glu29]GpTx-1(1-34)] (H-DCLGFMRKCIPDNDKCCRPNLVCSRTHKECKYVF-NH2; disulfide 2-17, 9-23, 16-30)
paw edema caused by formalin injection ([1]; mouse): Neither the peptide nor the morphine control significantly reduced | time spent lifting/licking, second phase ([1]; mouse): did not demonstrate a significant reduction

CN1CC[C@]23c4c5ccc(O)c4O[C@H]2[C@@H](O)C=C[C@H]3[C@H]1C5 [morphine, reference compound]
time spent lifting and/or licking the affected paw, first phase (0-5 minutes post formalin injection) ([1]; mouse): Neither the peptide nor the morphine positive control significantly reduced

— US9340590B2 (priority 2011, dated 2016)
